This note sets out measurements from ChEMBL document CHEMBL3351760, “Homology modeling and explicit membrane molecular dynamics simulation to delineate the mode of binding of thiazolidinediones into FFAR1 and the mechanism of receptor activation” (Bioorg Med Chem Lett, 2014).

This assay deals with Free fatty acid receptor 1 (Homo sapiens, UniProt O14842). As to the kind of experiment: Agonist activity at FFAR1 (unknown origin) assessed as increase in ERK1/2 MAP kinase phosphorylation.
Free fatty acid receptor 1, sequence (O14842 whole entry): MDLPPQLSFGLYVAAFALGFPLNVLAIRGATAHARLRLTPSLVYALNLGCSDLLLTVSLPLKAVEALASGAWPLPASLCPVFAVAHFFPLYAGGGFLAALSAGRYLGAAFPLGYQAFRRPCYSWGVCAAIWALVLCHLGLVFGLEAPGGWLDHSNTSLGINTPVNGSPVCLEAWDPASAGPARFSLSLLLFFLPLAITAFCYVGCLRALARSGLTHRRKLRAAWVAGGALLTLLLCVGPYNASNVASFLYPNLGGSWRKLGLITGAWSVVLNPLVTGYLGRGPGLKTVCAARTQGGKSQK

For `O=C(O)CCc1ccc(NCc2cccc(Oc3ccccc3)c2)cc1` [GW9508], the EC50 is 0.316 µM.

Turning to `CCc1ccc(CCOc2ccc(CC3SC(=O)NC3=O)cc2)nc1` (stereo not drawn) [PIOGLITAZONE], the concentration giving a half-maximal response (EC50) was 813 µM.

Regarding `CN(CCOc1ccc(CC2SC(=O)NC2=O)cc1)c1ccccn1` (stereo not drawn) [ROSIGLITAZONE], the EC50 was 11.5 µM.

By EC50 is commonly meant the concentration needed to bring the measured effect to its halfway point.
